The source of these data is US11780830B2, “Triazolone derivatives or salts thereof and pharmaceutical compositions comprising the same” (YUHAN CORPORATION, priority 2018, dated 2023).

Structures can show the parent of a compound that is named as a salt. A value given as a limit tells only on which side of the number the result lay.

Common to all, as to type: biochemical
The target of test [1] is T1, recombinant human MAO-B (monoamine oxidase-B) (Homo sapiens, UniProt P27338).
T1 construct: purchased Sigma-Aldrich
T1 sequence (P27338 1-520): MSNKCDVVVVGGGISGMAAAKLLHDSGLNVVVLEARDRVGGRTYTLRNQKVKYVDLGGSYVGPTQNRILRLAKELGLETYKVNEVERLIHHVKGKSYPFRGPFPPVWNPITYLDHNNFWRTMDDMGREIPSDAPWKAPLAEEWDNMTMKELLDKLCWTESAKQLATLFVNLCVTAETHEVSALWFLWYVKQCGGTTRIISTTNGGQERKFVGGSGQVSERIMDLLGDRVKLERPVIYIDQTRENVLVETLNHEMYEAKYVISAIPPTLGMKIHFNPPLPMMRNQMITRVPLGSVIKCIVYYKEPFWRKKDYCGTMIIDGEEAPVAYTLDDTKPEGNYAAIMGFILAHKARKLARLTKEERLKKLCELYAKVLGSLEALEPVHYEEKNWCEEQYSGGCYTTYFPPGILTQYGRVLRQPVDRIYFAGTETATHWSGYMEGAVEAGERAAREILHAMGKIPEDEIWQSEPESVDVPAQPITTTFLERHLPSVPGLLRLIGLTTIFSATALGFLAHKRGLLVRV
The test can be described thus: Activity on recombinant human MAO-B, method similar to the VAP-1 assay. Particulars: substrate 1 mM benzylamine; read-out: Inhibitory Activity (IC50, nM) MAO-B. The protocol: (§1) The compounds according to the present technology were evaluated in terms of activity on recombinant human VAP-1 (R&D systems) by measuring the level of hydrogen peroxide in horseradish peroxidase (HRP)-coupled reaction using Amplex Red Hydrogen Peroxide Assay Kit (Molecular Probes, Invitrogen, USA). The experiment was carried out at room temperature using benzylamine as a substrate. In the HRP-coupled reaction, hydrogen peroxide oxidation of 10-acetyl-3,7-dihydroxyphenoxazine (Amplex Red reagent) produces resorufin, which is a highly fluorescent compound. Briefly, the test compound was dissolved in dimethyl sulfoxide (DMSO) at a concentration of 20 mM. The dose-response assessment was made by 1:3 serial dilution in DMSO, thereby creating an 8 point curve. The concentration of the upper part was controlled according to the efficacy of the compounds, followed by dilution with a reaction buffer solution to obtain a final DMSO concentration less than 1%. To each well of a 96 black well plate, human VAP-1 purified in 50 mM sodium phosphate buffer solution (pH7.4) was added. The test compounds dissolved in DMSO were incubated with the human VAP-1 enzymes at 37° C. for 30 minutes. After 30-minute incubation, each well is added with a reaction mixture containing 200 uM Amplex Red reagent prepared from 50 mM sodium phosphate buffer solution (pH 7.4), 1 mM benzylamine, and 1 U/mL HRP. Fluorescence intensity was measured at several time points during 1-2 hours using a microplate reader (Flexstation3, Molecular Devices) under the wavelength condition exciting at 544 nm and reading the emission at 590 nm. The inhibitory effect of the compounds was measured as a decrease (%) in the signal rate as compared to the control group without any inhibitor (only diluted DMSO). Data was fixed to a logistic model with four variables and IC50 value was calculated using GraphPad Prism program.
(§2) In addition, the compounds according to the present technology were evaluated in terms of activity on a recombinant human MAO-A (monoamine oxidase-A, Sigma-Aldrich) and a recombinant human MAO-B (monoamine oxidase-B, Sigma-Aldrich) by using as substrates, 0.5 mM tyramine and 1 mM benzylamine, respectively, with a method similar to the activity evaluation method for recombinant human VAP-1. The compounds according to the present technology were also evaluated in terms of activity on a recombinant human DAO (diamine oxidase, R&D systems) by using as a substrate 1 mM putrescine with a method similar to the activity evaluation method for recombinant human VAP-1.

For test [2], the target named is T2, recombinant human VAP-1 (Homo sapiens, UniProt Q16853).
T2 construct: purchased R&D systems
T2 sequence (Q16853 1-763): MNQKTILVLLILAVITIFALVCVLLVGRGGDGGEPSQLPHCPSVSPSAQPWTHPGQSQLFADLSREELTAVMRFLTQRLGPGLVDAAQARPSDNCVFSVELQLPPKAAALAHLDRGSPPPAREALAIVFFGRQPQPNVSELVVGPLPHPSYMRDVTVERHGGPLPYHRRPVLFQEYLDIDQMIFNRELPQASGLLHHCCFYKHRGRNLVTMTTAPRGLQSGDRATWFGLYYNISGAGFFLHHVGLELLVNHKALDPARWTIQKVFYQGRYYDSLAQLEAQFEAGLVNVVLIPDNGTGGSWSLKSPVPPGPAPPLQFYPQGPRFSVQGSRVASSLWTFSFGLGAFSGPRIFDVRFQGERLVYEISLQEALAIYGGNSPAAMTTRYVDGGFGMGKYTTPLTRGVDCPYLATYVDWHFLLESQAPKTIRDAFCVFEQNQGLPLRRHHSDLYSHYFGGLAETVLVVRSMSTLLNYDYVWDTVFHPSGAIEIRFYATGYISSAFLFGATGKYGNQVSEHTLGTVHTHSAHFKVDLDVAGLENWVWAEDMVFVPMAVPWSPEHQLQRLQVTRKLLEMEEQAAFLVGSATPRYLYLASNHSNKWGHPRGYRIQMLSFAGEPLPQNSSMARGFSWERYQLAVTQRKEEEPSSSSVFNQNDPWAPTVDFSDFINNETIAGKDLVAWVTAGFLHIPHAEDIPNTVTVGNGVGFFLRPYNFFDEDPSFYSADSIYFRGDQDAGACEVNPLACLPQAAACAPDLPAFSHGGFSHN
The test can be described thus: Activity on recombinant human VAP-1, HRP-coupled Amplex Red hydrogen peroxide assay. As to conditions: substrate 1 mM benzylamine; compound incubated with enzyme at 37° C. for 30 minutes; pH 7.4; read-out: Inhibitory Activity (IC50, nM) human VAP-1. The protocol:
as §1

Test [3] deals with T3, recombinant human DAO (diamine oxidase) (Homo sapiens, UniProt P19801).
T3 construct: purchased R&D systems
T3 sequence (P19801 20-751): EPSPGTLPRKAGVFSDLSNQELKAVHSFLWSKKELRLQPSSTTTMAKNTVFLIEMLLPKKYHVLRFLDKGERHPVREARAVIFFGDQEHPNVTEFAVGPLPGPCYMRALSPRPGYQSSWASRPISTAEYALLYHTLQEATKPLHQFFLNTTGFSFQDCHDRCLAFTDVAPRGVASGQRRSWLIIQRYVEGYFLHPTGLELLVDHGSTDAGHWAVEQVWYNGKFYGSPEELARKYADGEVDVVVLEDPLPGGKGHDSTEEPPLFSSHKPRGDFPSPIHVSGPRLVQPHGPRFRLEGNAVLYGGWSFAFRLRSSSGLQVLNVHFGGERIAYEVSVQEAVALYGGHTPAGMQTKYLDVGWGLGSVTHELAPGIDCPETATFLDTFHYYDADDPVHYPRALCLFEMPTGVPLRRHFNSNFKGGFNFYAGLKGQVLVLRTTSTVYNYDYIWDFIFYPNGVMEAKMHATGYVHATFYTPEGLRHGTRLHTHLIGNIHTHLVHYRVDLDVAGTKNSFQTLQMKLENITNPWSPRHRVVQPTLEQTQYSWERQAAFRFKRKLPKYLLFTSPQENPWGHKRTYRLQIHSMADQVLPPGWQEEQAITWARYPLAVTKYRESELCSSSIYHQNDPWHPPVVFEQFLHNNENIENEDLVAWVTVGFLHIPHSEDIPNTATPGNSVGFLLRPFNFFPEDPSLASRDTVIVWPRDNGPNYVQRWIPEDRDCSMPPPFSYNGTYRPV
The test can be described thus: Activity on recombinant human DAO, method similar to the VAP-1 assay. As to conditions: substrate 1 mM putrescine; read-out: Inhibitory Activity (IC50, nM) DAO. The protocol: as §1, §2

Test [4] concerns the target T4, recombinant human MAO-A (monoamine oxidase-A) (Homo sapiens, UniProt P21397).
T4 construct: purchased Sigma-Aldrich
T4 sequence (P21397 1-527): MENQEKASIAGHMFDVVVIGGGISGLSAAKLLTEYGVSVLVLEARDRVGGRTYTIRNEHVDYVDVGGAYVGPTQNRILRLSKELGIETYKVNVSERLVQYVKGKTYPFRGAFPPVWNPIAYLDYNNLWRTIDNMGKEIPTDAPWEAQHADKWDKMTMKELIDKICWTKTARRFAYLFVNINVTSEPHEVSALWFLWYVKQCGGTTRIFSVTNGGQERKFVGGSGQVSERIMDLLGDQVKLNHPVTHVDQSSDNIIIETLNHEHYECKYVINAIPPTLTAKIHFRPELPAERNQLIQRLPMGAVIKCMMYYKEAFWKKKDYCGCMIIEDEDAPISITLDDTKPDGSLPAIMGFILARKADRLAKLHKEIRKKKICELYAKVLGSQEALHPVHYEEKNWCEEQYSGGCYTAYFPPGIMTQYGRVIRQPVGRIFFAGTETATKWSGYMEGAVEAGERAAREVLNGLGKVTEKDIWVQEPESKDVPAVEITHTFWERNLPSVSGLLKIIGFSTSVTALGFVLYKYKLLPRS
The test can be described thus: Activity on recombinant human MAO-A, method similar to the VAP-1 assay. As to conditions: substrate 0.5 mM tyramine; read-out: Inhibitory Activity (IC50, nM) MAO-A. The procedure: as §1, §2

Turning to `NC/C(=C\F)Cn1ncn(Cc2ccc(-c3ccc(C(F)(F)F)nc3)s2)c1=O` [Example 49, 2-[(2E)-2-(aminomethyl)-3-fluoroprop-2-en-1-yl]-4-(5-[6-(trifluoromethyl)pyridin-3-yl]thiophen-2-ylmethyl)-2,4-dihydro-3H-1,2,4-triazol-3-one hydrochloride], the IC50 (as a rule, the midpoint of a concentration-inhibition curve) in test [1] was 360 nM; in test [2], 0.5 nM; in test [3] it was 98 nM; in test [4], over 100000 nM.
`NC/C(=C\F)Cn1ncn(Cc2ccc(-c3ccc4c(c3)OCC(=O)N4)s2)c1=O` [Example 84, 7-[5-(1-[(2E)-2-(aminomethyl)-3-fluoroprop-2-en-1-yl]-5-oxo-1,5-dihydro-4H-1,2,4-triazol-4-ylmethyl)thiophen-2-yl]-2H-1,4-benzoxazin-3(4H)-one hydrochloride]: the IC50 is over 10000 nM in test [1], 0.2 nM in test [2], 1300 nM in test [3] and 63000 nM in test [4].
As to `NC/C(=C\F)Cn1ncn(Cc2ccc(C#Cc3cccnc3)s2)c1=O` [Example 127, 2-[(2E)-2-(aminomethyl)-3-fluoroprop-2-en-1-yl]-4-[5-(pyridin-3-ylethynyl)thiophen-2-yl]methyl-2,4-dihydro-3H-1,2,4-triazol-3-one hydrochloride], the half-maximal inhibitory concentration (IC50) was 150 nM in test [1], 0.8 nM in test [2], 910 nM in test [3] and over 100000 nM in test [4].
The like results for `CS(=O)(=O)c1ccc(-c2ccc3sc(Cn4cnn(C/C(=C/F)CN)c4=O)cc3c2)cc1` [Example 208, 2-[(2E)-2-(aminomethyl)-3-fluoroprop-2-en-1-yl]-4-({5-[4-(methylsulfonyl)phenyl]-1-benzothiophen-2-yl}methyl)-2,4-dihydro-3H-1,2,4-triazol-3-one] were, in that order, 26000 nM, 1.2 nM, 780 nM and over 100000 nM.
On to `CN(C)S(=O)(=O)c1cccc(-c2ccc(Cn3cnn(C/C(=C/F)CN)c3=O)s2)c1` [Example 183, 3-[5-({1-[(2E)-2-(aminomethyl)-3-fluoroprop-2-en-1-yl]-5-oxo-1,5-dihydro-4H-1,2,4-triazol-4-yl}methyl)thiophen-2-yl]-N,N-dimethylbenzenesulfonamide], for which the IC50 in test [1] is 220 nM; in test [2], 1.2 nM; in test [3], 440 nM; in test [4] it was over 100000 nM.
Taken in the same sequence, the figures for `Cc1c(-c2ccc(Cn3cnn(C/C(=C/F)CN)c3=O)s2)ccc2c1NC(=O)CC2` [Example 88, 7-[5-[[1-[(E)-2-(aminomethyl)-3-fluoro-allyl]-5-oxo-1,2,4-triazol-4-yl]methyl]-2-thienyl]-8-methyl-3,4-dihydro-1H-quinolin-2-one] were 2400 nM, 0.3 nM, 897 nM and over 100000 nM.
With `CCS(=O)(=O)c1ccc(-c2ccc(Cn3cnn(C/C(=C/F)CN)c3=O)s2)cc1` [Example 196, 2-[(2E)-2-(aminomethyl)-3-fluoroprop-2-en-1-yl]-4-({5-[4-(ethylsulfonyl)phenyl]thiophen-2-yl}methyl)-2,4-dihydro-3H-1,2,4-triazol-3-one], the 50% inhibitory concentration (IC50) in test [1] was 4700 nM; in test [2], 2.3 nM; in test [3] it was 230 nM; in test [4] it was over 100000 nM.
Taken in the same sequence, the figures for `Cn1cncc1C#Cc1ccc(Cn2cnn(C/C(=C/F)CN)c2=O)s1` [Example 130, 2-[(2E)-2-(aminomethyl)-3-fluoroprop-2-en-1-yl]-4-(5-[(1-methyl-1H-imidazol-5-yl)ethynyl]thiophen-2-ylmethyl)-2,4-dihydro-3H-1,2,4-triazol-3-one hydrochloride] were 440 nM, 0.5 nM, 1500 nM and 57400 nM.
Regarding `NC/C(=C\F)Cn1ncn(Cc2ccc(C#Cc3ccc4c(c3)NCCO4)s2)c1=O` [Example 134, 2-[(E)-2-(aminomethyl)-3-fluoro-allyl]-4-[[5-[2-(3,4-dihydro-2H-1,4-benzoxazin-6-yl)ethynyl]-2-thienyl]methyl]-1,2,4-triazol-3-one], the IC50 in test [1] worked out at 300 nM; in test [2], 2 nM; in test [3], 2100 nM; in test [4] it was 7100 nM.
